Counter-ions that a name gives are not always drawn.
How the values were obtained:
[1] = test system: MSCs grown on silk scaffolds; assay: Rho/Rock pathway and stress fiber disruption in MSCs grown on silk scaffolds; assay type: cell-based; conditions: treatment for 24 h
From the text: FIG. 6A-6C. Disruption of Rho/Rock Pathway signaling and stress fiber formation are required for tendon lineage determination. (6A) Immunocytochemistry of P-actin in MSCs grown either with no treatment or treated with Latrunculin A, Y-27632 and Blebbistatin for 7 days (blue=DAPI, green=P-actin). *P<0.05 for all treatments. (6B) mRNA expression and protein expression of Sex and mRNA expression of (6C) Coll al and Nfatc4 Nst in MSCs grown on silk scaffolds following treatment with Latrunculin A (LatA), Y-27632 (Y) and Blebbistatin (Bleb) for 24 h. Data represent three independent experiments per assay.
4. Disruption of stress fiber formation by blocking Rho/Rock Pathway signaling abolished silk scaffold induced MSCs tendon lineage differentiation. To determine the role of stress fibers in mediating silk fiber-induced MSC tenogenic differentiation, the impact of cell signaling on the regulation of stress fiber formation was examined.
Compared to untreated cells, cells that were exposed to the above treatment conditions lost their elongated phenotype (FIG. 6A). […] Therefore, the expression of Nfatc4 and Collal following treatment with Latrunculin A, Y-27632, and blebbistatin was also examined.

[2] = test system: MSCs grown on silk scaffolds; assay: effect of cytochalasin D on silk-fiber induced MSC teno-differentiation; assay type: cell-based
From the text: FIG. 5A-5I. Cytochalasin D disrupted actin cytoskeletal arrangement in cells attached to scaffold fibers and abolished the elongated cell body [(5A) vs (5B)] and associated nuclear shape change [(5C) vs (5D)]. […] (5G) Relative mRNA and (5H) western blot of Sex and Tnmd expression with (i) relative mRNA expression of the housekeeping genes Hrptl and Pgkl as an internal control. Data represent at least three independent experiments per assay. *P<0.05 compared to MSCs seeded on a scaffold without cytochalasin D. Scale bar=25 μm.
3. Actin polymerization is required for scaffold induced stem cell elongation and expression of tenogenesis markers Sex and Tnmd. To determine the role of cytoskeletal organization in the differentiation of MSCs into tenocytes when MSCs are grown on silk, the effect of cytochalasin D, which inhibits actin polymerization by capping the barbed ends of F-actin polymers was examined on silk-fiber induced MSC teno-differentiation. Differences in cell shape and cell nuclei were quantified by measuring the lengths of the cells that were growing in parallel with the fibers and were compared to the maximal widths of the cells, which were measured perpendicular to the fibers. […] Significant differences were found when quantifying the cytoplasmic (P<0.05) and nuclear (P<0.05) ratios (Fig. SE).
To determine whether actin polymerization in elongated cells is required for tenogenic differentiation, the effect of cytochalasin D was examined on tenogenic marker gene and protein expression in MSCs that were grown on silk scaffolds for 7 days. […] To determine whether the loss of Sex and Tnmd expression was due to specific effects produced by cytochalasin D on actin polymerization and cell morphology, rather than due to general toxicity related to gene expression, the expression levels of two housekeeping genes, Hypoxanthine-guanine phosphoribosyltransferase
1 (Hprtl) and phosphoglycerate kinase 1 (Pgkl), were analyzed.

[3] = MSCs grown on silk scaffolds for 7 days, compared to untreated controls
[4] = check for general toxicity related to gene expression
[5] = compared to untreated MSCs, P<0.05

Compound | expression level of Coll al [1] | expression level of Nfatc4 [1] | expression level of SCX proteins [1] | expression level of Sex mRNAs [1] | Sex expression (immunocytochemistry, real-time PCR, western blot) [2, 3] | Tnmd expression (immunocytochemistry, real-time PCR, western blot) [2, 3] | elongated phenotype of the cells [2, 3] | expression level of housekeeping gene Hprtl [2, 4] | expression level of housekeeping gene Pgkl [2, 4] | length-to-width ratio of cytoplasm [2, 5] | length-to-width ratio of nuclei [2, 5]
C[C@@H](N)[C@H]1CC[C@H](C(=O)Nc2ccncc2)CC1 [Y-27632, Y-27632 dihydrochloride] | significantly decreased | significantly decreased | significantly decreased | significantly decreased | – | – | – | – | – | – | –
Cc1ccc2c(c1)C(=O)C1(O)CCN(c3ccccc3)C1=N2 (stereo not shown) [blebbistatin] | significantly decreased | significantly decreased | significantly decreased | significantly decreased | – | – | – | – | – | – | –
C/C1=C/C(=O)O[C@@H]2C[C@@H](CC[C@H](C)/C=C\C=C\CC1)O[C@@](O)([C@@H]1CSC(=O)N1)C2 [Latrunculin A] | significantly decreased | significantly decreased | significantly decreased | significantly decreased | – | – | – | – | – | – | –
C=C1[C@@H](C)[C@H]2[C@H](Cc3ccccc3)NC(=O)[C@]23[C@H](OC(C)=O)/C=C/[C@@](C)(O)C(=O)[C@@H](C)C/C=C/[C@H]3[C@@H]1O [cytochalasin D] | – | – | – | – | loss | loss | abolished | remained unchanged | remained unchanged | smaller | smaller

From patent publication US11596656B2, “Stem cell-produced microvesicles for treating tendon pathologies” (ALBERT EINSTEIN COLLEGE OF MEDICINE, priority 2016, dated 2023)
